Test results: US20170246204A1, “MEDICAMENT FOR TREATING A DISEASE RELATING TO A DYSFUNCTION OF THE DOPAMINERGIC SYNAPTIC TRANSMISSION” (L'Air Liquide, Société Anonyme pour l'Etude et …, priority 2014, published 2017)

Columns and labels:
[1] = tested on: dopaminergic neurons (TH+) of rat mesencephalon cultures; assay: tritiated dopamine reuptake per TH+ dopaminergic neuron in mesencephalon cultures; assay type: cell-based; conditions: D14; memantine 10 μM; 75% Xe or 75% N2; p<0.05, n=9
Procedure: Cultures are prepared from mesencephalon of rat embryos, taking from female Wistar rats, on day 15.5 of gestation.
The process for obtaining the mesencephalon cultures comprises the obtaining of a homogeneous cell suspension by mechanical dissociation, that is to say non-enzymatic dissociation, of the embryonic tissue, using Leibovitz's L15 medium (Sigma Aldrich).
Aliquots of this suspension are added to 48-well Nunc plates, which have been precoated with a thin layer of polyethyleneimine (1 mg/ml, borate buffer, pH 8.3) so as to allow the adhesion of neuronal cells (Toulorge et al., Faseb J, 2011).
The seeding density is between approximately 80 000 and 100 000 cells/cm^2.
The mesencephalon cultures are maintained in Minimum Essential culture Medium (MEM), containing 1 g/l of glucose, 2 mM of L-glutamine, 1 mM of sodium pyruvate, non-essential amino acids and a penicillin/streptomycin cocktail. For the first week of culture, this medium is supplemented with 10% of fetal calf serum and 10% of horse serum. Starting from the second week, the serum concentrations are reduced to 2% (Gao et al., J Neurosci, 2002).
Up until the moment when the effects of the gases of interest are evaluated, the cultures are placed in a conventional enclosure thermostated at 37° C., in which the CO2 is maintained at 5% by volume and wherein the atmosphere is saturated with water. […]

[2] = tested on: dopaminergic neurons (TH+) of rat mesencephalon cultures; assay: neurite length per TH+ dopaminergic neuron in mesencephalon cultures; assay type: cell-based; conditions: D14; memantine 10 μM; 75% Xe or 75% N2; p<0.05, n=9
Procedure: Cultures are prepared from mesencephalon of rat embryos, taking from female Wistar rats, on day 15.5 of gestation. The process for obtaining the mesencephalon cultures comprises the obtaining of a homogeneous cell suspension by mechanical dissociation, that is to say non-enzymatic dissociation, of the embryonic tissue, using Leibovitz's L15 medium (Sigma Aldrich). Aliquots of this suspension are added to 48-well Nunc plates, which have been precoated with a thin layer of polyethyleneimine (1 mg/ml, borate buffer, pH 8.3) so as to allow the adhesion of neuronal cells (Toulorge et al., Faseb J, 2011). The seeding density is between approximately 80 000 and 100 000 cells/cm^2. The mesencephalon cultures are maintained in Minimum Essential culture Medium (MEM), containing 1 g/l of glucose, 2 mM of L-glutamine, 1 mM of sodium pyruvate, non-essential amino acids and a penicillin/streptomycin cocktail. For the first week of culture, this medium is supplemented with 10% of fetal calf serum and 10% of horse serum. […] Up until the moment when the effects of the gases of interest are evaluated, the cultures are placed in a conventional enclosure thermostated at 37° C., in which the CO2 is maintained at 5% by volume and wherein the atmosphere is saturated with water. […] This parameter is evaluated with the same HCS Studio software.

Structure (SMILES) | dopamine reuptake per TH^+ neuron, effect compared with control cultures under 75% nitrogen (FIG. 1) [1] | neurite length per TH^+ neuron, effect compared with control cultures under 75% nitrogen (FIG. 2) [2]
[Xe] [Xenon, xenon] | significantly greater | significantly greater
CC12CC3CC(C)(C1)CC(N)(C3)C2 [Memantine, memantine] | significantly greater | significantly greater
